What was measured:
[1] = tested on: dopamine levels in mouse brain; assay: In vivo study of drugs in MPTP mice model of Parkinson's disease, striatal dopamine by HPLC; conditions: IP daily 12 days, rasagiline 0.15 mg/Kg, pramipexole 0.12, 0.1, 0.075 mg/Kg, alone or combined
Experimental: Male C57B1/6 mice weighing 20+/−1 g are used (6-10 mice per group). MPTP is administrated by intraperitonealy (IP) injection at a dose of 40 mg/Kg per day for 5 days. Controls are naïve untreated mice injected with saline, and MPTP treated mice injected with saline (no drug treatment). Drugs, rasagiline (0.15 mg/Kg) and pramipexole (3 different doses of 0.12, 0.1 and 0.075 mg/Kg), are given alone or in 3 fixed dose combinations of rasagiline and pramipexole. The fixed dose combinations are composed of rasagiline at a constant dose of 0.15 mg/Kg and pramipexole at 3 different doses as indicated above. Both drugs are dissolved together at saline from their stock solutions to give the final desired combination dose. The application of the drugs is done daily intraperitonealy (IP) injection 30 minutes before MPTP administration. […] The effect of the treatments is assessed by measurement of dopamine and its metabolites (dihydroxyphenylacetic acid and Homovanillic acid) in left and right striatum together taken from the mice at the end of the experiment. […]
Striatum tissue samples are homogenized in ice in 500 μl homogenization buffer (0.1M perchloric acid, 0.02% EDTA and 1% ETOH) using OMNI Tip homogenizing kit of OMNI International (intermediate speed, 3×10 seconds with 5 seconds intervals). […] The supernatants are transferred into fresh tubes and Dopamine content is analyzed by HPLC. […]

[2] = tested on: Parkinson's disease patients; conditions: 1 mg immediate release rasagiline added to pramipexole averaging 1.5 mg per day; cited from earlier work

C#CCN[C@@H]1CCc2ccccc21 [rasagiline]
effect of treatment on Dopamine levels compared to saline [1]: very low | combined effect on total UPDRS score, reduction compared to placebo [2]: 2.4 UPDRS points

— patent US9504657B2, “Fixed dose combination therapy of Parkinson's disease” (PHARMA TWO B LTD., priority 2012, dated 2016)
